Data taken from ChEMBL document CHEMBL4428099, “Identification of indole scaffold-based dual inhibitors of NOD1 and NOD2” (Bioorg Med Chem, 2016).
The source made the active and inactive calls. No cut-off for these calls is given here.

What was measured:
Assay type in all cases: cell-based
[1] = biological target: T1, Nucleotide-binding oligomerization domain-containing protein 1 (Homo sapiens) (UniProt Q9Y239); assay: Inhibition of human NOD1 over-expressed in HEK-Blue cells assessed as inhibition of […] NF-kappaB transcriptional activity measured as residual activity at 25 uM preincubated for 1 hr followed by addition of C12-iE-DAP measured after 18 hrs by SEAP reporter gene assay relative to control
T1 sequence (whole entry): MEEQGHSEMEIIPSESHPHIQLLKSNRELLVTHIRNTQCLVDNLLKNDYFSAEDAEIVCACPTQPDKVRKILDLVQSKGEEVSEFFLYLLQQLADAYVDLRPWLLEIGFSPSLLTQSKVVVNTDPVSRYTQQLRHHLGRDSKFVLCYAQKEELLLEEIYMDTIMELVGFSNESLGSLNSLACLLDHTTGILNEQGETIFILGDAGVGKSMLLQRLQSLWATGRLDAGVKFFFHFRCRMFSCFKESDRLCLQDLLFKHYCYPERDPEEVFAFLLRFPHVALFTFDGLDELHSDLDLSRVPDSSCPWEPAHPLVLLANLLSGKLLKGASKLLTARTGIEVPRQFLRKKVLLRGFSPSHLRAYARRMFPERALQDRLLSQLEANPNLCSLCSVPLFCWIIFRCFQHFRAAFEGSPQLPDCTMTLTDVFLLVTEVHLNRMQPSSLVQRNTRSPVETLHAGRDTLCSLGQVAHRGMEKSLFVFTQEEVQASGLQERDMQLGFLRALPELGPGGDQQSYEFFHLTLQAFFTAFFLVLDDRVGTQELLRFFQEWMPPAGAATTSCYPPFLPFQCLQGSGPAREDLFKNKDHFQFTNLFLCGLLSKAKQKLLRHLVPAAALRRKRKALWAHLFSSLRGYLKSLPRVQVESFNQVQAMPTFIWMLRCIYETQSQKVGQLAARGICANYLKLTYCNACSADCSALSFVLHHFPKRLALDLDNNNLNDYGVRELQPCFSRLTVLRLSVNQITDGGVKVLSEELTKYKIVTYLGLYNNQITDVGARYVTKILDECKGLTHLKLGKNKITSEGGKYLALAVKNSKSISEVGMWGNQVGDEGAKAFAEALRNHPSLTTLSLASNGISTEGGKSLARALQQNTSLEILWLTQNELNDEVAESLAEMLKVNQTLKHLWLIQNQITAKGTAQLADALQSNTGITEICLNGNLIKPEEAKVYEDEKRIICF

[2] = biological target: Nucleotide-binding oligomerization domain-containing protein 2 (Homo sapiens, UniProt Q9HC29); assay: Inhibition of human NOD2 over-expressed in HEK-Blue cells assessed as inhibition of […] NF-kappaB transcriptional activity preincubated for 1 hr followed by addition of C12-iE-DAP measured after 18 hrs by SEAP reporter gene assay
Chain of Nucleotide-binding oligomerization domain-containing protein 2 (Q9HC29 whole entry, the tested form may be a part): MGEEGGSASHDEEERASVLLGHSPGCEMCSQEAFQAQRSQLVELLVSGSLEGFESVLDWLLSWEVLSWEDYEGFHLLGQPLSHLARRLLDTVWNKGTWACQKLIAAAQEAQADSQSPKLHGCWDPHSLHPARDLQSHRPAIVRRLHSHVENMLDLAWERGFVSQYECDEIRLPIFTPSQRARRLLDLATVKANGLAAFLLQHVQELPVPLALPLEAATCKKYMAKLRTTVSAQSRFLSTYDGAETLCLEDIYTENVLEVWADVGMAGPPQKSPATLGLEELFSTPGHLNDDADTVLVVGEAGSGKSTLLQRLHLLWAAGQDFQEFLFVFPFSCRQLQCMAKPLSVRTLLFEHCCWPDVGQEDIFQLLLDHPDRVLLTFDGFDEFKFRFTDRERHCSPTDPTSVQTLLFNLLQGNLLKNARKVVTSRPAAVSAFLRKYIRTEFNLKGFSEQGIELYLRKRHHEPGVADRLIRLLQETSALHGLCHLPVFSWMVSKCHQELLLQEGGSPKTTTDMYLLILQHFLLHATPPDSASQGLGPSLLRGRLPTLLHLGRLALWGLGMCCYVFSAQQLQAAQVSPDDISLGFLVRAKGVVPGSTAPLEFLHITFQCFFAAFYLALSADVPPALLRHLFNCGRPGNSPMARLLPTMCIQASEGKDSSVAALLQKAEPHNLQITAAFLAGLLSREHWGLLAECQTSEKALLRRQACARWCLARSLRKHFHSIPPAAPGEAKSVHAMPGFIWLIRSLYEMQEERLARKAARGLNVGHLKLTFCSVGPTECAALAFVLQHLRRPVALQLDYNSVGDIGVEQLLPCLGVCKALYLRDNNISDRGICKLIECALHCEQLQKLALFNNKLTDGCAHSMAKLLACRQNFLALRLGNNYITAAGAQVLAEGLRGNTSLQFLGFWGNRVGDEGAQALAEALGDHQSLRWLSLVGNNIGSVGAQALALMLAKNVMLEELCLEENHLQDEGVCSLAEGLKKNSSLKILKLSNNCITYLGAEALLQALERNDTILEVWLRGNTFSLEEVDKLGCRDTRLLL

[3] = Cytotoxicity against HEK-Blue cells assessed as residual metabolic activity up to 25 uM measured after 24 hrs by MTS assay relative to untreated control; details: human, read-out: Activity
[4] = biological target: T2, Nucleotide-binding oligomerization domain-containing protein 1 (Homo sapiens, UniProt Q9Y239); assay: Inhibition of human NOD1 over-expressed in HEK-Blue cells assessed as inhibition of […] NF-kappaB transcriptional activity preincubated for 1 hr followed by addition of C12-iE-DAP measured after 18 hrs by SEAP reporter gene assay
T2 sequence (Q9Y239 whole entry): T1 sequence (whole entry)

Compound `N=C1Cc2ccccc2N1Cc1ccc(Cl)cc1` has an Activity [1] of 44%, an IC50 [2] greater than 25 µM and a viability at 24 h [3] of no less than 80%. It also gave an IC50 [4] of 15.7 µM.
Compound `CCOC(=O)c1cc2ccccc2n1Cc1ccc(C)cc1` has an Activity [1] of 24%, an IC50 [2] of 9.04 µM and a viability at 24 h [3] of no less than 80%. The IC50 [4] was 7.78 µM.
`CCOC(=O)c1cc2ccccc2n1Cc1ccc(Cl)cc1` showed an Activity [1] of 29% and a viability at 24 h [3] of no less than 80%.
`CCOC(=O)c1cc2ccccc2n1S(=O)(=O)c1ccc(OC)cc1` gave an Activity [1] of 36% and a viability at 24 h [3] of no less than 80%.
Work on `Cc1ccc(S(=O)(=O)n2c(C(=O)O)cc3ccccc32)cc1` yielded a viability at 24 h [3] of no less than 80%.
For `CCOC(=O)c1cc2ccccc2n1S(=O)(=O)c1ccc(Cl)cc1`, the Activity [1] was 30%, the IC50 [2] was 23.4 µM and the viability at 24 h [3] was no less than 80%. For the same compound, the IC50 [4] was 19.8 µM.
`CC(C)(C)OC(=O)Nc1cc2ccccc2n1Cc1ccc(Cl)cc1` gave a viability at 24 h [3] of no less than 80%.
Compound `Cc1ccc(S(=O)(=O)n2c(C(N)=O)cc3ccccc32)cc1` has an Activity [1] of 76% and a viability at 24 h [3] of no less than 80%.
For `CCOC(=O)c1cc2ccccc2n1S(=O)(=O)c1ccc(C)cc1`, the Activity [1] was 24%, the IC50 [2] was 6.45 µM and the viability at 24 h [3] was no less than 80%. The IC50 [4] was 5.74 µM.
Work on `CCOC(=O)c1cc2ccccc2n1Cc1ccccc1` yielded an Activity [1] of 58% and a viability at 24 h [3] of no less than 80%.
With `CC(C)c1ccc(CN2C(=N)Cc3ccccc32)cc1` the Activity [1] was “inactive” and the viability at 24 h [3] was no less than 80%.
With `N=C1Cc2ccccc2N1Cc1ccc(C2CC2)cc1` the Activity [1] was “inactive” and the viability at 24 h [3] was no less than 80%.
`Cc1ccc(S(=O)(=O)n2c(C(=O)NN)cc3ccccc32)cc1` showed an Activity [1] of 68% and a viability at 24 h [3] of no less than 80%.
Work on `CCOC(=O)c1cc2ccccc2n1Cc1ccc(C(C)C)cc1` yielded an Activity [1] of 42% and a viability at 24 h [3] of no less than 80%.
In the case of `N=C1Cc2ccccc2N1Cc1ccc(Br)cc1`, the Activity [1] is reported as “inactive” and the viability at 24 h [3] is reported as no less than 80%.
Work on `CCOC(=O)c1cc2ccccc2n1Cc1ccc(C(F)(F)F)cc1` yielded an Activity [1] of 46% and a viability at 24 h [3] of no less than 80%.
For `CCOC(=O)c1cc2ccccc2n1S(=O)(=O)c1ccc([N+](=O)[O-])cc1`, the Activity [1] was 27%, the IC50 [2] was 16.9 µM and the viability at 24 h [3] was no less than 80%. For the same compound, the IC50 [4] was 15 µM.
`O=C(O)c1cc2ccccc2n1Cc1ccc(Cl)cc1` gave a viability at 24 h [3] of no less than 80%.
Compound `CCOC(=O)c1cc2ccccc2n1Cc1ccc(F)cc1` has an Activity [1] of 53% and a viability at 24 h [3] of no less than 80%.
With `CCOC(=O)c1cc2ccccc2n1C(=O)c1ccc(C)cc1` the IC50 [2] was 24.6 µM, the viability at 24 h [3] was no less than 80% and the IC50 [4] was 16 µM.
Compound `Cc1ccc(S(=O)(=O)n2c(N)nc3ccccc32)cc1` has an Activity [1] of 9%, an IC50 [2] of 54.9 µM and a viability at 24 h [3] of no less than 80%.
`CCOC(=O)c1cc2ccccc2n1Cc1ccc(Br)cc1` gave an Activity [1] of 45% and a viability at 24 h [3] of no less than 80%.
For `Cc1ccc(CN2C(=N)Cc3ccccc32)cc1`, the Activity [1] was “inactive” and the viability at 24 h [3] was no less than 80%.
In the case of `N=C1Cc2ccccc2N1Cc1ccccc1`, the Activity [1] is reported as 72% and the viability at 24 h [3] is reported as no less than 80%.
Compound `Cc1ccc(S(=O)(=O)n2c(NC(=O)OC(C)(C)C)cc3ccccc32)cc1` has a viability at 24 h [3] of no less than 80%.
`Cc1ccc(S(=O)(=O)N2C(=N)Cc3ccccc32)cc1` gave a viability at 24 h [3] of no less than 80%.
For `N=C1Cc2ccccc2N1Cc1ccc(C(F)(F)F)cc1`, the Activity [1] was “inactive” and the viability at 24 h [3] was no less than 80%.
`CCOC(=O)c1cc2ccccc2n1S(=O)(=O)c1ccc(C(F)(F)F)cc1` showed an Activity [1] of 37% and a viability at 24 h [3] of no less than 80%.
Work on `CCOC(=O)c1cc2ccccc2n1Cc1ccc(C2CC2)cc1` yielded an Activity [1] of 39% and a viability at 24 h [3] of no less than 80%.
`CCOC(=O)c1cc2ccccc2n1S(=O)(=O)c1ccc(F)cc1` showed an Activity [1] of 24%, an IC50 [2] of 12.6 µM and a viability at 24 h [3] of no less than 80%. It also gave an IC50 [4] of 9.22 µM.
